# US4667033A, “Substituted 6-(thien-2-yl)-3(2H)-pyridazinones” (A. Nattermann & Cie GmbH, priority 1983, dated 1987)
# How the values were obtained:
# benzodiazepin-receptors = test: Inhibition of 3H-Flunitrazepam binding (benzodiazepin-receptors); conditions: for IC50: log-probit-analysis
# From the text: (§1) III. Determination of activity to central nervous system.
# (§2) The following compounds have been tested for their activity to benzodiazepin-receptors and imipramin-fixation sites in comparison to the known compounds Amitriptylinoxid and Medazepam:
# (§3) The determination of their inhibitory activity has been effected corresponding to H. W. Damm et al., Res. Comm. chem. path. Pharmacol. 22, 597-600 (1978) or, respectively, M. Briley et al., Eur. J. Pharmacol. 72, 377-380 (1981). The separation of the bound from the free ligand concentration is effected by filtration. The used ligands Flunitrazepam and Imipramin has been marked by tritium.
# (§4) Half maximum inhibitory values have been determined by means of a […]
# imipramin-fixation sites = biological target: T1, imipramin-fixation sites (Rattus norvegicus, UniProt P31652); test: Inhibition of 3H-Imipramin binding (imipramin-fixation sites); conditions: for IC50: log-probit-analysis
# T1 construct: from tissue
# T1 sequence (P31652 whole entry): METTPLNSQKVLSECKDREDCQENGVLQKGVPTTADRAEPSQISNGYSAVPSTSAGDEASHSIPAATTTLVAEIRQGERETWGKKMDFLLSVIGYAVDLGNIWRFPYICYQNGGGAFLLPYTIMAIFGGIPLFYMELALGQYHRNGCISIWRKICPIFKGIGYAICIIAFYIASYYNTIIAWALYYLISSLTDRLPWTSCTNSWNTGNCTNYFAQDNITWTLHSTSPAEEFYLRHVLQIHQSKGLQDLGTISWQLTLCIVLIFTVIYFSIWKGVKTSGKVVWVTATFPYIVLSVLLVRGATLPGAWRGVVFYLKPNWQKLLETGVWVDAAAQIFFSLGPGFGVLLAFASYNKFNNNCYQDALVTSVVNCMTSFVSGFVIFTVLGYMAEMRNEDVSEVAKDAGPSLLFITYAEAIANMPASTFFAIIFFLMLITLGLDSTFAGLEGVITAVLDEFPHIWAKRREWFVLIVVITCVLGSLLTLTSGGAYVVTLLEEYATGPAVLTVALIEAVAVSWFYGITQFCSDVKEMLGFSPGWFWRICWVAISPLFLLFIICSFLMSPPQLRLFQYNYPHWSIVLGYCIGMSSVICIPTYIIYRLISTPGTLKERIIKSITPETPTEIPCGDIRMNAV
# From the text: as §1, §2, §3, §4
# [1] = test system: isolated right-hand atrium; test: Chronotropic effect in spontaneously pulsing right-hand atrium of guinea pigs; parameters: species or system guinea pig; conditions: Cavia porcellus, mean percentage change to starting value, six determinations; for activation at 100 µM: 1 × 10^-4 mol/l, A in 1 × 10^-4 molar citric acid, B in tetraglycol and dilute hydrochloric acid
# Procedure: (§5) I. Test to show inotropic effectiveness in the isolated atrium of guinea pigs.
# (§6) The measurements have been effected on isolated atria of guinea pigs. The effect to pulse frequency (chronotropy) is determined at the spontaneously pulsing right-hand atrium. The effect to the contractility (inotropy) is determined at the electrically stimulated left-hand atrium. The mean values of the percentage change to the starting value from six different determinations in each test is given hereinafter.
# [2] = test system: isolated left-hand atrium; test: Inotropic effectiveness in electrically stimulated left-hand atrium of guinea pigs; parameters: species or system guinea pig; conditions: Cavia porcellus, mean percentage change to starting value, six determinations, read-out: Inotropic Effect; for activation at 100 µM: 1 × 10^-4 mol/l, A in 1 × 10^-4 molar citric acid, B in tetraglycol and dilute hydrochloric acid
# Procedure: as §5, §6
# narcotized cat = test: Determination of the myocardial effect in the narcotized cat; type: in vivo
# From the text: II. Determination of the myocardial effect in the narcotized cat.
# 10 cats of both sexes are narcotized with chloralose-urethane (0.25% urethane, 0.05% chloralose per kilogram). To ease the spontaneous respiration there was effected a tracheotomy. The following hemodynamic parameters were noted down:
# The arteriel systolic and diastolic blood pressure by means of a polyethylene cathether in the right-hand Arteria femoralis registered by means of a Statham element type P23 DB. The pulse frequency was obtained from the blood pressure amplitude and registered by means of a cardiotachometer (type EKA-pulse).
# The increase of isovolumetric blood pressure was determined by means of a catheter tip manometer of the type PC 350 A of the Millar Company, USA, introduced to the Arteria carotis communis left-ventricullary and was determined by subsequent differentiation (amplifier of Messrs. Sachs).
# The known values have been registered continuously by a Beckmann-Dynograph of the type R. There are given the values in an interval of 2 minutes.
# The test animals have been heparinized with 500 I.E. of Liquemin®.
# The test compounds are dissolved as follows:
# Compound A in 50% glycofurol with heating,
# Compound B in 10% glycofurol and 5% HCl with heating.
# The test compounds have been administered at consecutively increasing dosages at a volume of 0.1 cc./kg. (Arteria femoralis). The total time of injection was […]. The next dose has been administered only after the complete dying-out of the effect of the previous administration.
# [3] = 1 × 10^-3 mol/l, in tetraglycol and dilute hydrochloric acid
smiles,measurement,setting,value
"CN1CCN=C(c2ccccc2)c2cc(Cl)ccc21 [Medazepam, reference compound]",IC50,benzodiazepin-receptors,3.9 µM
"Cl.O=c1ccc(-c2ccc(Cn3ccnc3)s2)nn1CCCN1CCCCC1 [G, 6-[5-(Imidazol-1-yl-methyl)-thien-2-yl]-2-(3-piperidino-propyl)-3(2H)-pyridazinon-hydrochloride]",3H-Flunitrazepam % Inhibition,benzodiazepin-receptors; 1 × 10^-4 mole/l,40%
same,3H-Flunitrazepam % Inhibition,benzodiazepin-receptors; 1 × 10^-6 mole/l,4%
same,3H-Imipramin % Inhibition,imipramin-fixation sites; 1 × 10^-4,86%
same,3H-Imipramin % Inhibition,imipramin-fixation sites; 1 × 10^-6 mole/l,27%
same,IC50,imipramin-fixation sites,3 µM
"Cl.O=c1ccc(-c2ccc(Cn3cccn3)s2)nn1CCN1CCOCC1 [D, 2-(2-Morpholino-ethyl)-6-[5-(pyrazol-1-yl-methyl)-thien-2-yl]-3(2H)-pyridazinon-hydrochloride]",3H-Flunitrazepam % Inhibition,benzodiazepin-receptors; 1 × 10^-4 mole/l,49%
same,3H-Flunitrazepam % Inhibition,benzodiazepin-receptors; 1 × 10^-6 mole/l,2%
same,IC50,benzodiazepin-receptors,60 µM
same,3H-Imipramin % Inhibition,imipramin-fixation sites; 1 × 10^-4,87%
same,3H-Imipramin % Inhibition,imipramin-fixation sites; 1 × 10^-6 mole/l,34%
same,IC50,imipramin-fixation sites,20 µM
"Cl.O=c1ccc(-c2ccc(Cn3ccnc3)s2)nn1CCN1CCCCC1 [F, 6-[5-(Imidazol-1-yl-methyl)-thien-2-yl]-2-(2-piperidino-ethyl)-3(2H)-pyridazinon-hydrochloride]",3H-Flunitrazepam % Inhibition,benzodiazepin-receptors; 1 × 10^-4 mole/l,66%
same,3H-Flunitrazepam % Inhibition,benzodiazepin-receptors; 1 × 10^-6 mole/l,12%
same,IC50,benzodiazepin-receptors,90 µM
same,3H-Imipramin % Inhibition,imipramin-fixation sites; 1 × 10^-4,62%
same,3H-Imipramin % Inhibition,imipramin-fixation sites; 1 × 10^-6 mole/l,7%
same,IC50,imipramin-fixation sites,7 µM
"Cc1cc(-c2ccccc2)nn(CCN2CCOCC2)c1=O.Cl [H, 4-Methyl-2-(2-morpholino-ethyl)-6-phenyl-3(2H)-pyridazinon-hydrochloride, reference compound]",3H-Flunitrazepam % Inhibition,benzodiazepin-receptors; 1 × 10^-4 mole/l,14%
same,3H-Flunitrazepam % Inhibition,benzodiazepin-receptors; 1 × 10^-6 mole/l,0%
same,3H-Imipramin % Inhibition,imipramin-fixation sites; 1 × 10^-4,36%
same,3H-Imipramin % Inhibition,imipramin-fixation sites; 1 × 10^-6 mole/l,8%
"O=c1ccc(-c2ccc(Cn3ccnc3)s2)n[nH]1 [Compound A, 6-[5-(Imidazol-1-yl-methyl)-thien-2-yl]-3(2H)-pyridazinone]",activation at 100 µM,[1],19%
same,activation at 100 µM,[2],44%
same,Blood Pressure diast.,narcotized cat; 0.1 mg/kg i.v.,-1%
same,Blood Pressure syst.,narcotized cat; 0.1 mg/kg i.v.,+1%
same,Myocardial Contractility,narcotized cat; 0.1 mg/kg i.v.,+24%
same,Pulse Frequency,narcotized cat; 0.1 mg/kg i.v.,+1%
same,Blood Pressure diast.,narcotized cat; 0.316 mg/kg i.v.,-6%
same,Blood Pressure syst.,narcotized cat; 0.316 mg/kg i.v.,0%
same,Myocardial Contractility,narcotized cat; 0.316 mg/kg i.v.,+32%
same,Pulse Frequency,narcotized cat; 0.316 mg/kg i.v.,+1%
same,Blood Pressure diast.,narcotized cat; 1.0 mg/kg i.v.,-18%
same,Blood Pressure syst.,narcotized cat; 1.0 mg/kg i.v.,-8%
same,Myocardial Contractility,narcotized cat; 1.0 mg/kg i.v.,+42%
same,Pulse Frequency,narcotized cat; 1.0 mg/kg i.v.,-9%
same,Blood Pressure diast.,narcotized cat; 3.16 mg/kg i.v.,-33%
same,Blood Pressure syst.,narcotized cat; 3.16 mg/kg i.v.,-19%
same,Myocardial Contractility,narcotized cat; 3.16 mg/kg i.v.,+51%
same,Pulse Frequency,narcotized cat; 3.16 mg/kg i.v.,-15%
"Nc1cc(-c2ccncc2)c[nH]c1=O [Compound B, 3-Amino-5-(4-pyridyl)-2-pyridone, reference compound]",activation at 1000 µM,[1]; [3],20%
same,activation at 100 µM,[1],2%
same,activation at 1000 µM,[2]; [3],21%
same,activation at 100 µM,[2],4%
same,Blood Pressure diast.,narcotized cat; 0.1 mg/kg i.v.,-3%
same,Blood Pressure syst.,narcotized cat; 0.1 mg/kg i.v.,-3%
same,Myocardial Contractility,narcotized cat; 0.1 mg/kg i.v.,+5%
same,Pulse Frequency,narcotized cat; 0.1 mg/kg i.v.,0%
same,Blood Pressure diast.,narcotized cat; 0.316 mg/kg i.v.,-4%
same,Blood Pressure syst.,narcotized cat; 0.316 mg/kg i.v.,-2%
same,Myocardial Contractility,narcotized cat; 0.316 mg/kg i.v.,+25%
same,Pulse Frequency,narcotized cat; 0.316 mg/kg i.v.,+1%
same,Blood Pressure diast.,narcotized cat; 1.0 mg/kg i.v.,-22%
same,Blood Pressure syst.,narcotized cat; 1.0 mg/kg i.v.,-15%
same,Myocardial Contractility,narcotized cat; 1.0 mg/kg i.v.,+40%
same,Pulse Frequency,narcotized cat; 1.0 mg/kg i.v.,0%
same,Blood Pressure diast.,narcotized cat; 3.16 mg/kg i.v.,-51%
same,Blood Pressure syst.,narcotized cat; 3.16 mg/kg i.v.,-35%
same,Myocardial Contractility,narcotized cat; 3.16 mg/kg i.v.,+30%
same,Pulse Frequency,narcotized cat; 3.16 mg/kg i.v.,-20%
"C[N+](C)([O-])CCC=C1c2ccccc2CCc2ccccc21 [Amitriptylinoxid, reference compound]",IC50,imipramin-fixation sites,24 µM
"Cl.O=c1ccc(-c2ccc(Cn3ccnc3)s2)nn1CCN1CCOCC1 [E, 6-[5-(Imidazol-1-yl-methyl)-thien-2-yl]-2-(2-morpholino-ethyl)-3(2H)-pyridazinon-hydrochloride]",3H-Flunitrazepam % Inhibition,benzodiazepin-receptors; 1 × 10^-4 mole/l,74%
same,3H-Flunitrazepam % Inhibition,benzodiazepin-receptors; 1 × 10^-6 mole/l,19%
same,IC50,benzodiazepin-receptors,9 µM
same,3H-Imipramin % Inhibition,imipramin-fixation sites; 1 × 10^-4,40%
same,3H-Imipramin % Inhibition,imipramin-fixation sites; 1 × 10^-6 mole/l,4%
